{
  "source": "patent US8785594B2",
  "about": "“Glycoproteins and glycosylated cells and a method for the preparation of the same” (Glycom A/S, priority 2007, dated 2014)",
  "format_in_all_cases": "cell-based",
  "key": {"B16.BL6 melanoma cells [1]": {"system": "B16.BL6 melanoma cells", "experiment": "Flow cytometry with FITC-labelled GS1B4 (Example 14)", "protocol": "(§1) Radioactive labelled and regular trisaccharide probe was dissolved in HBSS containing D-glucose (without Mg^2+ and Ca^2+) (Gibco Invitrogen, Taastrup, Denmark) and passed through sterile filters (0.2 μm Supor® Acrodisc® 13, Gelman Sciences, Ann Arbor, Mich.). Four different concentrations of each “Glycom conjugate” (25 mg, 5 mg, 1 mg and 0.1 mg) were made. Twelve flasks (150 cm^2) (TPP, Trasadingen Switzerland) were prepared each containing a total of 10×10^6 B16.BL6 cells. The trisaccharide probe was added and the total volume was adjusted to 20 mL with HBSS containing D-glucose (without Mg^2+ and Ca^2+). The cells were incubated with the “Glycom conjugate” for 1.5 hours at 37° C. After conjugation, the supernatant from each flask was transferred to separate 50 mL tubes (TPP, Trasadingen Switzerland). The cells were harvested with Cell Dissociation Solution C5914 (5 mL per flask) (Sigma-Aldrich, Saint Louis, Mo. and transferred to the 50 mL tubes containing the supernatant. The cells were centrifuged for 3 minutes at 300 G at 20° C. and resuspended in 5 mL of PBS (without Mg^2+ and Ca^2+). This was repeated 3 times before cell concentration and viability was determined by microscopical evaluation of trypan blue stained cell samples.\nCells conjugated with regular trisaccharide probe were analysed by flow cytometry. Four hundred μl of each cell suspension containing 2×10^5 cells were incubated for 15 minutes at 4° C. with 10 μg per mL of FITC-labelled GS1B4. Mean fluorescence intensity of cells stained with GS1B4 was measured by flow cytometry."}, "B16.BL6 melanoma cells [2]": {"system": "B16.BL6 melanoma cells", "experiment": "Flow cytometry with FITC-labelled GS1B4 (Example 11)", "protocol": "Five hundred mg of alpha-Gal trisaccharide-carbamate (9) was dissolved in PBS (without Mg^2+ and Ca^2+) (Gibco Invitrogen, Taastrup, Denmark) and passed through a sterile filter (Sartorius Minisart®, 0.20 my) (Sartorius, Goettingen, Germany). Eight different concentrations of conjugate were prepared. Two mL of each conjugate dilution was added to a flask with 2 mL of PBS (without Mg^2+ and Ca^2+) and 600 μl of cell suspension containing 10^6 B16.BL6 cells. The final volume of the flasks was 4.6 mL. The flasks were numbered 1 to 10. Flasks 1 and 10 contained no conjugate and served as controls. The cells were incubated with the conjugate for 3 hours and 25 minutes at 37° C. and 5% CO2.\nB16.BL6 cells from conjugation reaction 1 (non-conjugated cells), 2, 4, 6 and 8 were analysed by flow cytometry. One hundred μL of cell suspension containing 1×10^5 cells were incubated for 15 minutes at 4° C. with 10 μg per mL (1:100 dilution) of FITC-labelled GS1B4 in TBS containing 1% BSA. The proportion of cells stained, mean and median cell fluorescence intensity was determined by flow cytometry. Afterwards, cells were washed once in PBS and measurements were repeated. Rabbit red blood cells (RRBC) known to express ˜2×10^6 Galα1,3Gal epitopes per cell were used for comparison. The analyses of conjugated B16.BL6 cells and RRBCs were performed on different days."}, "B16.BL6 melanoma cells [3]": {"system": "B16.BL6 melanoma cells", "experiment": "Scintillation, estimation of epitopes per cell (Example 14)", "protocol": "as §1\nCells conjugated with radioactive labelled trisaccharide probe were centrifuged for 5 minutes at 1000 G at 20° C. The supernatants were discharged and the remaining pellets were dried. Subsequently, the pellets were dissolved in 400 μl Mili-Q H2O and 1.5 mL of scintillation fluid was added. Standards for the scintillation were made by adding 500 pCi, 0.5 pCi and 0 pCi to the 3 samples of control cells. The samples were stored at room temperature for 3 days, before the cell suspensions were transferred to scintillation vials and counted."}, "[4]": {"settings": "unwashed cells, reaction 2 (200 mg conjugate)"}, "[5]": {"settings": "unwashed cells, reaction 6 (10 mg conjugate)"}, "[6]": {"settings": "unwashed cells, reaction 8 (2 mg conjugate)"}, "[7]": {"settings": "washed cells, reaction 2 (200 mg conjugate)"}, "[8]": {"settings": "washed cells, reaction 6 (10 mg conjugate)"}, "[9]": {"settings": "washed cells, reaction 8 (2 mg conjugate)"}},
  "data": [
    {"molecule": "O=C1N[C@@H]2O[C@H](CO)[C@@H](O[C@@H]3O[C@H](CO)[C@H](O)[C@H](O[C@H]4O[C@H](CO)[C@H](O)[C@H](O)[C@H]4O)[C@H]3O)[C@H](O)[C@H]2O1", "note": "[Compound 9, alpha-Gal trisaccharide-carbamate]", "values": [
      {"measurement": "Cells marked with GS1B4", "setting": "B16.BL6 melanoma cells [1]; 0.1 mg conjugate added", "result": 17.64, "unit": "%"},
      {"measurement": "Mean fluorescence intensity of cells marked with GS1B4", "setting": "B16.BL6 melanoma cells [1]; 0.1 mg conjugate added", "result": 1025.86},
      {"measurement": "Cells marked with GS1B4", "setting": "B16.BL6 melanoma cells [1]; 1 mg conjugate added", "result": 2.36, "unit": "%"},
      {"measurement": "Mean fluorescence intensity of cells marked with GS1B4", "setting": "B16.BL6 melanoma cells [1]; 1 mg conjugate added", "result": 342.05},
      {"measurement": "Cells marked with GS1B4", "setting": "B16.BL6 melanoma cells [1]; 5 mg conjugate added", "result": 14.56, "unit": "%"},
      {"measurement": "Mean fluorescence intensity of cells marked with GS1B4", "setting": "B16.BL6 melanoma cells [1]; 5 mg conjugate added", "result": 1719.58},
      {"measurement": "Cells marked with GS1B4", "setting": "B16.BL6 melanoma cells [1]; 25 mg conjugate added", "result": 31.86, "unit": "%"},
      {"measurement": "Mean fluorescence intensity of cells marked with GS1B4", "setting": "B16.BL6 melanoma cells [1]; 25 mg conjugate added", "result": 2460.67},
      {"measurement": "Binding of FITC-labelled GS1B4 to conjugated cells", "setting": "B16.BL6 melanoma cells [1]; 0.1-25 mg regular trisaccharide probe", "result": "only a fraction of the conjugated cells bound detectable amounts of FITC-labelled GS1B4"},
      {"measurement": "Galα1,3Gal epitopes detected by binding of FITC-labelled GS1B4, flow cytometry", "setting": "B16.BL6 melanoma cells [2]; conjugation reactions 2, 6 and 8", "result": "found on B16.BL6 cells from all conjugation reactions tested"},
      {"measurement": "Number of Galα1,3Gal-epitopes on the conjugated cells", "setting": "B16.BL6 melanoma cells [2]; from fluorescence intensity, compared with rabbit red blood cells", "result": "> 2×10^6 Galα1,3Gal epitopes"},
      {"measurement": "Cells marked with FITC-GS1B4", "setting": "B16.BL6 melanoma cells [2]; reaction 2 (200 mg conjugate)", "result": 95.82, "unit": "%"},
      {"measurement": "Cells marked with FITC-GS1B4", "setting": "B16.BL6 melanoma cells [2]; reaction 6, 10 mg conjugate", "result": 62.17, "unit": "%"},
      {"measurement": "Cells marked with FITC-GS1B4", "setting": "B16.BL6 melanoma cells [2]; reaction 8, 2 mg conjugate", "result": 56.82, "unit": "%"},
      {"measurement": "Mean fluorescence intensity", "setting": "B16.BL6 melanoma cells [2]; [4]", "result": 726.72},
      {"measurement": "Median fluorescence intensity", "setting": "B16.BL6 melanoma cells [2]; [4]", "result": 523.30},
      {"measurement": "Mean fluorescence intensity", "setting": "B16.BL6 melanoma cells [2]; [5]", "result": 862.24},
      {"measurement": "Median fluorescence intensity", "setting": "B16.BL6 melanoma cells [2]; [5]", "result": 798.63},
      {"measurement": "Mean fluorescence intensity", "setting": "B16.BL6 melanoma cells [2]; [6]", "result": 594.99},
      {"measurement": "Median fluorescence intensity", "setting": "B16.BL6 melanoma cells [2]; [6]", "result": 572.55},
      {"measurement": "Mean fluorescence intensity", "setting": "B16.BL6 melanoma cells [2]; [7]", "result": 447.48},
      {"measurement": "Median fluorescence intensity", "setting": "B16.BL6 melanoma cells [2]; [7]", "result": 321.97},
      {"measurement": "Mean fluorescence intensity", "setting": "B16.BL6 melanoma cells [2]; [8]", "result": 439.04},
      {"measurement": "Median fluorescence intensity", "setting": "B16.BL6 melanoma cells [2]; [8]", "result": 406.79},
      {"measurement": "Mean fluorescence intensity", "setting": "B16.BL6 melanoma cells [2]; [9]", "result": 264.30},
      {"measurement": "Median fluorescence intensity", "setting": "B16.BL6 melanoma cells [2]; [9]", "result": 259.45}
    ]},
    {"molecule": "O=[13C]1N[C@@H]2O[C@H](CO)[C@@H](O[C@@H]3O[C@H](CO)[C@H](O)[C@H](O[C@H]4O[C@H](CO)[C@H](O)[C@H](O)[C@H]4O)[C@H]3O)[C@H](O)[C@H]2O1", "note": "[radioactive labelled conjugate]", "values": [
      {"measurement": "Epitopes per cell", "setting": "B16.BL6 melanoma cells [3]; 0.1 mg conjugate added", "result": "3.6 × 10^6"},
      {"measurement": "Epitopes per cell", "setting": "B16.BL6 melanoma cells [3]; 1 mg conjugate added", "result": "28.3 × 10^6"},
      {"measurement": "Epitopes per cell", "setting": "B16.BL6 melanoma cells [3]; 5 mg conjugate added, cells from supernatant only", "result": "152.4 × 10^6"},
      {"measurement": "Epitopes per cell", "setting": "B16.BL6 melanoma cells [3]; 25 mg conjugate added, attached cells only", "result": "364.2 × 10^6"},
      {"measurement": "Relation of scintillation counts to dose of conjugate", "setting": "B16.BL6 melanoma cells [3]; 0.1-25 mg", "result": "positive correlation"}
    ]}
  ]
}
